Test results from patent US20070015828A1 (Wyeth, priority 2005, published 2007).
Entries after “also recorded” stand apart in the source; their conditions may differ.

Assays:
Dopamine, D1 (hr) = Dopamine, D1 (hr) (Homo sapiens, UniProt P21728); assay: Receptor binding assay: Dopamine D1; conditions: Test Compound @ 10 1 M
Glutamate, AMPA Site = assay: Receptor binding assay: Glutamate AMPA site; conditions: Test Compound @ 10 1 M
Serotonin, 5HT2A (h) = molecular target: T1, Serotonin, 5HT2A (h) (Homo sapiens, UniProt P28223); assay: Receptor binding assay: Serotonin 5HT2A; conditions: Test Compound @ 10 1 M
T1 construct: Novascreen (contract assay)

Opiate, Delta 2 (hr) = molecular target: T2, Opiate, Delta 2 (hr) (Homo sapiens, UniProt P41143); assay: Receptor binding assay: Opiate Delta 2; conditions: Test Compound @ 10 1 M
T2 construct: Novascreen (contract assay)

Serotonin, 5HT5A (hr) = molecular target: T3, Serotonin, 5HT5A (hr) (Homo sapiens, UniProt P47898); assay: Receptor binding assay: Serotonin 5HT5A; conditions: Test Compound @ 10 1 M
T3 construct: Novascreen (contract assay)

[1] = molecular target: T4, Benzodiazepine, peripheral (h) (Homo sapiens, UniProt P30536); assay: Receptor binding assay: Benzodiazepine peripheral; conditions: Test Compound @ 10 1 M
T4 construct: Novascreen (assay provider)

[2] = tested on: mouse PPQ induced writhing model; assay: Visceral pain model: PPQ-induced constrictions (writhing); assay type: in vivo
Method: 1-[2-dimethylamino-1-(4-phenol)ethyl]-cis-1,4-cyclohexandiol was dissolved in sterile saline and administered orally (p.o.) at dosages of 10 mg/kg, 30 mg/kg and 100 mg/kg. Gabapentin was purchased from Toronto Research Chemicals (Ontario, Canada) and suspended in 2% Tween 80 in 0.5% methylcellulose and administered intraperitoneally (i.p.).
For the visceral pain study male CD-1 mice (20-25 g, Charles River; Kingston/Stoneridge, NY) were housed in groups of 5/cage on bedding and for the neuropathic study male Sprague-Dawley rats (125-150 g, Harlan; Indianapolis, Ind.) were housed 3/cage on bedding. […]
The ability of 1-[2-dimethylamino-1-(4-phenol)ethyl]-cis-1,4-cyclohexandiol to attenuate acute visceral (abdominal) pain was assessed following an i.p. injection of 2 mg/kg PPQ (dissolved in 4% ethanol in distilled water, Sigma-Aldrich, St. Louis, Mo.) [Siegmund, E., et al., Proceedings of the Society for Experimental Biology and Medicine., 95 (1957) […]]. […] During testing, following PPQ administration, mice were individually placed in a Plexiglas cage and the total number of abdominal constrictions was recorded for one-minute periods, starting at 5 and 10 minutes after PPQ injection.
Statistical significance was determined using a one-way ANOVA using a customized SAS-excel application (SAS Institute, Cary, N.C.). […]

Dopamine, D3 (hr) = Dopamine, D3 (hr) (Homo sapiens, UniProt P35462); assay: Receptor binding assay: Dopamine D3; conditions: Test Compound @ 10 1 M
Oxidase, MAO-A, Central = assay: Receptor binding assay: Oxidase MAO-A central (second line); conditions: Test Compound @ 10 1 M
Opiate, Mu (hr) = molecular target: T5, Opiate, Mu (hr) (Homo sapiens, UniProt P35372); assay: Receptor binding assay: Opiate Mu; conditions: Test Compound @ 10 1 M
T5 construct: Novascreen (contract assay)

[3] = tested on: Glutamate, NMDA agonist Site; assay: Receptor binding assay: Glutamate NMDA agonist site; conditions: Test Compound @ 10 1 M
Serotonin, 5HT3 (hr) = molecular target: T6, Serotonin, 5HT3 (hr) (Homo sapiens, UniProt P46098); assay: Receptor binding assay: Serotonin 5HT3; conditions: Test Compound @ 10 1 M
T6 construct: Novascreen (contract assay)

[4] = molecular target: T7, Norepinephrine transporter (Homo sapiens, UniProt P23975); assay: Norepinephrine transporter (human recombinant) binding assay
T7 construct: Novascreen (contract assay)

Dopamine, D4.4 (hr) = Dopamine, D4.4 (hr) (Homo sapiens, UniProt P21917); assay: Receptor binding assay: Dopamine D4.4; conditions: Test Compound @ 10 1 M
[5] = Solution Stability in aqueous solutions; assay type: physicochemical; conditions: room temperature, all aqueous solutions (pH 1.4-10.0)
Serotonin Transporter = molecular target: T8, Serotonin Transporter (Homo sapiens, UniProt P31645); assay: Serotonin transporter (human) binding assay
T8 construct: Novascreen (contract assay)

CACO-2 cells = assay: Permeability assessment, HTS-24 CACO-2 model; assay type: in vitro ADME
Method: The rate of drug transport through the CACO-2 cells was determined as the Apparent Permeability Coefficient according to the following formula:
Papp=AQ X Rv cm.s- AT 60.A.Co
ΔT=Change in time (minutes)
Co=Initial concn in the donor chamber (mM.cm^−3)
A=Surface area of membrane (cm^2)
60=Conversion factor to give cm.s^−1
Rv=volume of receiver compartment.
Transepithelial electrical resistance (TER) was calculated from resistance measurements according to the following formula: TER=(R[cells+filter+medium])−(R[filter+medium])×cell area.
Apparent permeability rates were interpreted as follows. […] Apparent permeability values less than metoprolol or propranolol are considered to be ≦90% fa (moderate permeability classification). Apparent permeability values of <10 nms^−1 are considered to be ≦50% fa (low permeability classification). TER values of <120 ohms cm^2 indicate low monolayer integrity over the assay period.
A compound/metoprolol or propranolol ratio of <1 indicates a moderate to low permeability compound.

rat hot plate assay = assay: Rat hot plate assay (acute pain); assay type: in vivo; conditions: up to 30 mg/kg po
Serotonin, 5HT2C = assay: Receptor binding assay: Serotonin 5HT2C; conditions: Test Compound @ 10 1 M
Sigma 2 = assay: Receptor binding assay: Sigma 2; conditions: Test Compound @ 10 1 M
[6] = interpretation of the binding data in words

T7 sequence (P23975 whole entry): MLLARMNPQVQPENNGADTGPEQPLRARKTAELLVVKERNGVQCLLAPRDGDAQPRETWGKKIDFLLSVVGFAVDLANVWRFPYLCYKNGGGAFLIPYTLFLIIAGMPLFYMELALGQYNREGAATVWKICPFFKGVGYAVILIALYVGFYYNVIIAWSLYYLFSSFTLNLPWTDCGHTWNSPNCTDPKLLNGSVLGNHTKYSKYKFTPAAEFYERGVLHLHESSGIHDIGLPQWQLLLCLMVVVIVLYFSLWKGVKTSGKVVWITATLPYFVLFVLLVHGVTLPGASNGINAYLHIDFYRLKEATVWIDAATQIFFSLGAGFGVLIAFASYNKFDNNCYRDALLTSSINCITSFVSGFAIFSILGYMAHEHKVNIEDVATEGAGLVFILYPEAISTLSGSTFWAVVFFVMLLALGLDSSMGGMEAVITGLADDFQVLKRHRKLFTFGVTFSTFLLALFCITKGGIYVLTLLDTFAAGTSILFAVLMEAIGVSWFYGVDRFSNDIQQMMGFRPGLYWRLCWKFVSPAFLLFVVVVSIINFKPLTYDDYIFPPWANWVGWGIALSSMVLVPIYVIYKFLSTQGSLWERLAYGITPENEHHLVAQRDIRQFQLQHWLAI
T8 sequence (P31645 whole entry): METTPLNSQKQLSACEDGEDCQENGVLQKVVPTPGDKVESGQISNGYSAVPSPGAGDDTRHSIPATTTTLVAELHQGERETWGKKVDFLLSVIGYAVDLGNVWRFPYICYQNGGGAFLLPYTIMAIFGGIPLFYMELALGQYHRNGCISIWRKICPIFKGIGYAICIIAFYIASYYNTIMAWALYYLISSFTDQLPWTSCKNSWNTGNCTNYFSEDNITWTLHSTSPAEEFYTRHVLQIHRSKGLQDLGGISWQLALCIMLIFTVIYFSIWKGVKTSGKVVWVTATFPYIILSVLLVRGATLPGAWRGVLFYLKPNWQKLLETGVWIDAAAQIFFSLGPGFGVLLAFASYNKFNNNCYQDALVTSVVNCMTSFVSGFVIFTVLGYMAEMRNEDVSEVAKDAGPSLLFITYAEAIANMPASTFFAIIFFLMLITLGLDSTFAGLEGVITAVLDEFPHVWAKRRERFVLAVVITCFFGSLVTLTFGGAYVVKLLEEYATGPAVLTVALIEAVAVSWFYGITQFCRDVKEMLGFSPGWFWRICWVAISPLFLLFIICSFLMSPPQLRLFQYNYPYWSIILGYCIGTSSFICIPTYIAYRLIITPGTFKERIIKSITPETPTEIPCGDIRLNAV
T1 sequence (P28223 whole entry): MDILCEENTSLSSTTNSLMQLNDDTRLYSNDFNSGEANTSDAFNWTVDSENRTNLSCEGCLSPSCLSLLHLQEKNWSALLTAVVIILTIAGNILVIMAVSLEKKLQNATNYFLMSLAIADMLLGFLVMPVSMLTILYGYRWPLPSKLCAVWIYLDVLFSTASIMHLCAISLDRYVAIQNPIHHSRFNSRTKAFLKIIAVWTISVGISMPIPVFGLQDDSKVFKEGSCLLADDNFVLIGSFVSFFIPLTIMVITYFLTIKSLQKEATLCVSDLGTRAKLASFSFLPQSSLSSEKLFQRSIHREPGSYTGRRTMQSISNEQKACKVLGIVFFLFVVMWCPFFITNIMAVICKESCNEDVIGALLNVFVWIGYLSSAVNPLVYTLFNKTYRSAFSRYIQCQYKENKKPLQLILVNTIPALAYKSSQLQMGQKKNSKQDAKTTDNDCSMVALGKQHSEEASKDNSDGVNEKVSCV
T6 sequence (P46098 24-478): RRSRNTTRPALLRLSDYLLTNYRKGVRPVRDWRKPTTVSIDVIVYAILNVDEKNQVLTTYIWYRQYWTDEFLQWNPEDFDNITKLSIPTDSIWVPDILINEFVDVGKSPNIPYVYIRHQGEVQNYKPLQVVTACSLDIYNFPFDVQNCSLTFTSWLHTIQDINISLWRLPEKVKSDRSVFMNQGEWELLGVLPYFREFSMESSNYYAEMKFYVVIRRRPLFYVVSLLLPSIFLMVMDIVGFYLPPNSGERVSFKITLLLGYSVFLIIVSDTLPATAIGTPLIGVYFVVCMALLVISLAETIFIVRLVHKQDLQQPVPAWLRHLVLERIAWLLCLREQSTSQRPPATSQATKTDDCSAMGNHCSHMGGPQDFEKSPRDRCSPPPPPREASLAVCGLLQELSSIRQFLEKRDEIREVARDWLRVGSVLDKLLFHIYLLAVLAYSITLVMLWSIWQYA
Sequence of Dopamine, D1 (hr) (P21728 whole entry): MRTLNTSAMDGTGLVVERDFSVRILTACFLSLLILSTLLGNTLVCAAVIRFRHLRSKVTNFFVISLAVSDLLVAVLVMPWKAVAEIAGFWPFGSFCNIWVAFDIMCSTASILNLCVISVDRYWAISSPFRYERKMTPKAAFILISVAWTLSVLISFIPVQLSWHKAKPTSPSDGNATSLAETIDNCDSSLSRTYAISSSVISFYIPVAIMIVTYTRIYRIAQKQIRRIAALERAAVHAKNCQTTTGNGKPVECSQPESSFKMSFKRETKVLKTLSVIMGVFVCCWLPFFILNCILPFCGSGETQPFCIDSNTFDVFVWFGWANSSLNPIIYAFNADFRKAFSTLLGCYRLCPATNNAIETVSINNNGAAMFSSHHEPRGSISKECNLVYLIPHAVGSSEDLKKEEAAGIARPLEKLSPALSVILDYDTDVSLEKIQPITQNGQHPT
Sequence of Dopamine, D4.4 (hr) (P21917 whole entry): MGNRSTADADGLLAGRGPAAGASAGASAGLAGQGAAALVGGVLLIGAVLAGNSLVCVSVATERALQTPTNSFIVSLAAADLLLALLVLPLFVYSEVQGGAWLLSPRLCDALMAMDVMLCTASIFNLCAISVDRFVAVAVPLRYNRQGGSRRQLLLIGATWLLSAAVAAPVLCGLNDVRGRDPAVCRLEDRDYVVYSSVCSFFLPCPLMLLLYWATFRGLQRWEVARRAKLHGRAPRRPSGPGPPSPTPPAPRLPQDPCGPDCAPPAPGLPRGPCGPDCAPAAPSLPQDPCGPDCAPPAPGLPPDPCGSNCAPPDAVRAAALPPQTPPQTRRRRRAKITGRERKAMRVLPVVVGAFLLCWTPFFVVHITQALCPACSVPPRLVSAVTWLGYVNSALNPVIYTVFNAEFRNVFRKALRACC
T2 sequence (P41143 whole entry): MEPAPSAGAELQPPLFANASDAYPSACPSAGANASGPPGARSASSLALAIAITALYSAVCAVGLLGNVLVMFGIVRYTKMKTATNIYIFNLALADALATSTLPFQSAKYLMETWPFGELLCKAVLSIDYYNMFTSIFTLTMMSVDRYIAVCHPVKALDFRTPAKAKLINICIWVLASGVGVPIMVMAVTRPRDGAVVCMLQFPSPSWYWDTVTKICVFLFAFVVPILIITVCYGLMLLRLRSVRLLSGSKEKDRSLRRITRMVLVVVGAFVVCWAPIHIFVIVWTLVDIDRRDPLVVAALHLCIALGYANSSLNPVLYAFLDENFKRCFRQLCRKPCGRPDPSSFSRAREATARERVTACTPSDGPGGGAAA
T5 sequence (P35372 whole entry): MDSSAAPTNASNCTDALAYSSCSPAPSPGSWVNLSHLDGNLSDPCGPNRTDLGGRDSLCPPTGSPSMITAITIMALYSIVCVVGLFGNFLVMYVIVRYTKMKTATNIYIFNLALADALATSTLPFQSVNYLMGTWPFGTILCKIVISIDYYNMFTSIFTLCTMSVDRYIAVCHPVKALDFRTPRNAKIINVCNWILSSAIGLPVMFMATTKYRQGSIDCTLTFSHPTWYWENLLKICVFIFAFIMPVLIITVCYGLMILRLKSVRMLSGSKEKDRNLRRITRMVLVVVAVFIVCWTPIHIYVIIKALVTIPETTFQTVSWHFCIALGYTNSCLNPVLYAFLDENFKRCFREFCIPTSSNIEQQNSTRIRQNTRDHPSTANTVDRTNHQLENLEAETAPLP
Sequence of Dopamine, D3 (hr) (P35462 whole entry): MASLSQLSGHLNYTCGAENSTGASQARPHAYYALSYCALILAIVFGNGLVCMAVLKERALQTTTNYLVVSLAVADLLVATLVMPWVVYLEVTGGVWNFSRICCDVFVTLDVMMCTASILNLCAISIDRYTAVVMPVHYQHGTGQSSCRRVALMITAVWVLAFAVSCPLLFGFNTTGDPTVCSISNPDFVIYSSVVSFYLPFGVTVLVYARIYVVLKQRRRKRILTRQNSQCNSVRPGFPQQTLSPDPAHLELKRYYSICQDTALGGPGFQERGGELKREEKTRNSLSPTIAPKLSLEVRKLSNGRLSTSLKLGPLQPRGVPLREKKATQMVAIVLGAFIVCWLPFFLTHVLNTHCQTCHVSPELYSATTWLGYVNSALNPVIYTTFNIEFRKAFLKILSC
T3 sequence (P47898 whole entry): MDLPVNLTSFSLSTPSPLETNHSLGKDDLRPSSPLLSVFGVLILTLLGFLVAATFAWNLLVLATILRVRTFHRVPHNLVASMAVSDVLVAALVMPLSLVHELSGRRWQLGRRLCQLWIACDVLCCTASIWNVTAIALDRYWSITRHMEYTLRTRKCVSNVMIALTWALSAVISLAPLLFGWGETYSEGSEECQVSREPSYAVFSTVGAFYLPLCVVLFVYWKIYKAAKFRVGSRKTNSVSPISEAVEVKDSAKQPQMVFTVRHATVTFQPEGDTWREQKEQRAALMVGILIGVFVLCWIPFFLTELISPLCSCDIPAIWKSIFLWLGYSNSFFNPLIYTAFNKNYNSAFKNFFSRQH
T4 sequence (P30536 whole entry): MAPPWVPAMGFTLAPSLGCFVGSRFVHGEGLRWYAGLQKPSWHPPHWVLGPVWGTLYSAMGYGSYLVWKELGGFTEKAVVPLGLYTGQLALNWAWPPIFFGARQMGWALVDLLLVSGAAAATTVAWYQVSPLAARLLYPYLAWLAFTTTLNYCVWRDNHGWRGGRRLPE

CN(C)CC(c1ccc(O)cc1)C1(O)CCC(O)CC1 (stereo not drawn) [1-[2-dimethylamino-1-(4-phenol)ethyl]-cis-1,4-cyclohexandiol]
inhibition at 10 µM (Dopamine, D1 (hr)): -5.73%
Receptor Binding % Inhibition (Glutamate, AMPA Site): 2.50%
inhibition at 10 µM (Serotonin, 5HT2A (h)): 3.7%
inhibition at 10 µM (Opiate, Delta 2 (hr)): 12.2%
inhibition at 10 µM (Serotonin, 5HT5A (hr)): 19.9%
inhibition at 10 µM [1]: 1.65%
reversal of visceral pain (reduction in writhing) ([2]; 100 mg/kg p.o., 60 minutes prior to PPQ, 100 mg/kg): statistically significant reversal; also recorded: significant reduction
reduction in writhing ([2]; 10 and 30 mg/kg p.o.): not statistically significant
inhibition at 10 µM (Dopamine, D3 (hr)): 3.36%
Receptor Binding % Inhibition (Oxidase, MAO-A, Central): 2.43%
inhibition at 10 µM (Opiate, Mu (hr)): -0.35%
Receptor Binding % Inhibition [3]: −2.99%
inhibition at 10 µM (Serotonin, 5HT3 (hr)): 9.72%
inhibition at 10 µM ([4]; Norepinephrine transporter, Test Compound @ 10 1 M, read-out: Receptor Binding % Inhibition): 49.7%
norepinephrine reuptake inhibition activity [4, 6]: acceptable
inhibition at 10 µM (Dopamine, D4.4 (hr)): 3.39%
Solution Stability, time stable [5]: The compound was stable for at least 24 hours
inhibition at 10 µM (Serotonin Transporter; Serotonin Transporter, Test Compound @ 10 1 M, read-out: Receptor Binding % Inhibition): 94.5%
serotonin reuptake inhibition activity (Serotonin Transporter; [6]): very good
efflux activity (CACO-2 cells; CACO-2, from B:A ratio): no efflux activity
permeability classification (CACO-2 cells; CACO-2, versus propranolol reference): high permeability
effect on acute pain (rat hot plate assay): not found to affect acute pain
Receptor Binding % Inhibition (Serotonin, 5HT2C): 10.05%
Receptor Binding % Inhibition (Sigma 2): 1.00%
